Measured values taken from PMC3502511, “Inhibition of the Prokaryotic Pentameric Ligand-Gated Ion Channel ELIC by Divalent Cations” (PLoS Biology, 2012).
Where two headings read alike, the source gives them in different places.

Legend:
Type in all cases: cell-based, Erwinia chrysanthemi
ELIC WT [1] = molecular target: T1, ELIC WT (Dickeya chrysanthemi, UniProt P0C7B7, INS163G); test: cell-based; conditions: WT; for Slope: Schild plot slope
T1 construct: expressed in transfected cells; host or cells: X. laevis oocytes (cRNA injection, pTLN vector)
Protocol: (§1) Constructs containing the gene of either the WT or mutant channels preceded by the signal sequence of the chicken α7nAchR were cloned into the pTLN vector for expression in X. laevis oocytes. After linearization of the plasmid DNA by MluI, capped complementary RNA was transcribed with the mMessage mMachine kit (Ambion) and purified with the RNeasy kit (Qiagen). For expression, 1–50 ng of RNA was injected into defolliculated oocytes. Two-electrode voltage clamp measurements were performed 1 d after injection at 20°C (OC-725B, Warner Instrument Corp.). Currents were recorded in bath solutions containing 10 mM HEPES (pH 7), 130 mM NaCl, and the indicated concentrations of cysteamine and divalent cations. In case of solutions containing Zn^2+, cysteamine was replaced by propylamine. The membrane potential in all dose–response measurements was set to −40 mV. As ELIC is permeable to divalent cations, we tested if endogenous calcium-activated chloride channels affected our measurements. To chelate intracellular calcium ions, the oocytes were incubated for 15 to 30 min in bath solutions lacking divalent ions but containing 10 µM BAPTA-AM.

ELIC R91A = molecular target: T2, ELIC R91A (Dickeya chrysanthemi, UniProt P0C7B7, INS163G/R91A); test: Two-electrode voltage clamp, ELIC R91A in oocytes; conditions: R91A
T2 construct: expressed in transfected cells; host or cells: X. laevis oocytes
Protocol: as §1

ELIC D113A/D158A = molecular target: T3, ELIC D113A/D158A (Dickeya chrysanthemi, UniProt P0C7B7, D113A/D158A/INS163G); test: cell-based; conditions: agonist propylamine; for EC50: 113A/158A
T3 construct: expressed in transfected cells; host or cells: X. laevis oocytes
Protocol: as §1

ELIC WT [2] = molecular target: T4, ELIC WT (Dickeya chrysanthemi, UniProt P0C7B7); test: cell-based; conditions: WT, agonist propylamine
T4 construct: expressed in transfected cells; host or cells: X. laevis oocytes (cRNA injection, pTLN vector)
Protocol: as §1

ELIC H168A = molecular target: T5, ELIC H168A (Dickeya chrysanthemi, UniProt P0C7B7, H168A/INS163G); test: Two-electrode voltage clamp, ELIC H168A in oocytes; conditions: agonist propylamine
T5 construct: expressed in transfected cells; host or cells: X. laevis oocytes
Protocol: as §1

ELIC H176A = molecular target: T6, ELIC H176A (Dickeya chrysanthemi, UniProt P0C7B7, H176A/INS163G); test: Two-electrode voltage clamp, ELIC H176A in oocytes; conditions: agonist propylamine
T6 construct: expressed in transfected cells; host or cells: X. laevis oocytes
Protocol: as §1

ELIC = molecular target: T7, ELIC (Dickeya chrysanthemi, UniProt P0C7B7, INS163G); test: Agonist concentration jumps, outside-out patches from HEK 293 cells expressing ELIC
T7 construct: expressed in transfected cells; host or cells: HEK 293 cells (ATCC CRL-1573), pcDNA3
Protocol: Human embryonic kidney 293 cells (American Type Culture Collection-CRL-1573;LGC Promochem) were maintained at 37°C in a 95% air/5% CO2 incubator in DMEM supplemented with 0.11 g/l sodium pyruvate, 10% (v/v) heat-inactivated fetal bovine serum, 100 U/ml penicillin G, 100 µg/ml streptomycin sulfate, and 2 mM L-glutamine (Invitrogen). Cells (passaged every 2 d, up to 30 times) were plated and transfected by calcium phosphate-DNA coprecipitation, with a total amount of DNA of 3 µg/dish (82% ELIC and 18% eGFP DNA, both subcloned in pcDNA3).
Cells were bathed in an extracellular solution containing (mM): 150 KCl, 0.05 or 0.2 CaCl2, and 10 HEPES, pH adjusted to 7.4 with KOH (osmolarity 310 mOsm). Patch pipettes were pulled from thick-walled borosilicate glass (GC150F; Harvard Apparatus) and fire polished to a resistance of 8–12 MΩ. Intracellular solution contained (mM): 150 KCl, 0.5 CaCl2, 5 EGTA, and 10 HEPES, pH adjusted to 7.4 with KOH. Agonist-evoked currents were recorded at 20°C with an Axopatch 200B amplifier (Molecular Devices) from outside-out patches held at −100 mV. Patches were stepped to this holding voltage 0.2 s before the agonist was applied and otherwise held at −40 mV. No correction for junction potential was applied (calculated value 0.2 mV). Currents were filtered at 5 kHz, digitized at 50 kHz with Digidata 1322A, and saved directly on computer with Clampex software (all MDS Analytical Technologies).
All concentration jumps were performed using a piezo stepper (Burleigh instruments) with an application tool made from theta tube glass (Hilgenberg; final tip diameter, 150 µm). Voltage commands for the piezo stepper were 200 ms square pulses conditioned by low-pass eight-pole Bessel filtering (−3 dB frequency 5 kHz) to smooth oscillations. Actual exchange time was estimated by recording the open-tip response to the application of diluted extracellular solution (70% water) after rupture of the patch. Only patches in which the 20%–80% exchange time was faster than 250 µs were included in the analysis.
Agonist solutions were freshly prepared every day from 1 M stock solutions. Propylamine was applied at a concentration known to elicit maximum response (20 mM and 50 mM, for 50 and 200 µM Ca^2+, respectively). Traces shown are averages of 5 or 10 individual agonist currents, separated by at least 10 s. Responses were averaged, and the time course of activation and deactivation (between 95% and 5% of the peak current level) was fitted with one exponential component (program Clampfit 9.0).

[3] = Ca^2+ 50 µM, propylamine 20 mM (last line, repeat)
[4] = Ca^2+ 50 µM, propylamine 20 mM, −100 mV (first line)
[5] = Ca^2+ 200 µM, propylamine 20 mM
[6] = Ca^2+ 200 µM, propylamine 50 mM

In the case of `[Sr+2]` [Sr^2+], the Ki (ELIC WT [1]; Schild analysis, agonist cysteamine, read-out: Ki app) is reported as 0.85 mM, the Slope (ELIC WT [1]; agonist cysteamine) is reported as 0.9±0.02 and the pA (ELIC WT [1]; Schild plot x-intercept (log of mM), agonist cysteamine, −40 mV) is reported as −0.07±0.02.

With `C[N+](C)(C)C` [TMA, tetramethylammonium] the Ki (ELIC R91A; Schild analysis, read-out: Ki app) was 6 mM, the Slope (ELIC R91A; Schild plot slope) was 0.8±0.1 and the pA (ELIC R91A; agonist cysteamine) was 0.78±0.18.

In the case of `[Zn+2]` [Zn^2+, zinc], the “modulation in the double mutant” value (ELIC D113A/D158A; D113A/D158A) is reported as “abolish”, the Ki (ELIC WT [1]; Schild analysis, agonist propylamine, read-out: Ki app) is reported as 0.007 mM and the Slope (ELIC WT [1]; agonist propylamine) is reported as 1.2±0.01. The pA (ELIC WT [1]; Schild plot x-intercept, agonist propylamine) was −2.16±0.13 and the Ki (ELIC WT [1]; agonist propylamine, read-out: Schild plot x-intercept) was 0.008 mM.

With `CCCN` [propylamine] the EC50 (ELIC D113A/D158A; Zn^2+ 0 mM) was 3.7 mM, the EC50 (ELIC D113A/D158A; Zn^2+ 0.01 mM) was 4.56 mM and the EC50 (ELIC D113A/D158A; Zn^2+ 0.1 mM) was 4.22 mM. It also gave an EC50 (ELIC WT [2]; Zn^2+ 0.01 mM) of 0.92 mM, an EC50 (ELIC WT [2]; Zn^2+ 0.05 mM) of 3.72 mM and an EC50 (ELIC WT [2]; Zn^2+ 0.1 mM) of 10.1 mM. For the same molecule, the EC50 (ELIC H168A; Zn^2+ 0 mM) was 0.67 mM, the EC50 (ELIC H168A; Zn^2+ 0.01 mM) was 1.17 mM and the EC50 (ELIC H168A; Zn^2+ 0.05 mM) was 4.82 mM. It also gave an EC50 (ELIC H168A; Zn^2+ 0.1 mM) of 12.2 mM, an EC50 (ELIC H176A; Zn^2+ 0 mM) of 5.16 mM and an EC50 (ELIC H176A; Zn^2+ 0.01 mM) of 11.9 mM. For the same molecule, the EC50 (ELIC H176A; Zn^2+ 0.025 mM) was 25.5 mM, the τdecay (ELIC; [3]) was 33.5 ± 6.9 ms and the τrise (ELIC; [3]) was 19.6 ± 3.1 ms. The τdecay (ELIC; [4]) was 34.7 ± 5.6 ms, the τrise (ELIC; [4]) was 16.7 ± 1.5 ms and the τdecay (ELIC; [5]) was 23.9 ± 3.1 ms. It also gave a τrise (ELIC; [5]) of 38.5 ± 6.7 ms, a τdecay (ELIC; [6]) of 36.7 ± 12.7 ms and a τrise (ELIC; [6]) of 16.4 ± 2.2 ms.
